Assay results taken from US20230085307A1, “PYRIDAZINONE COMPOUND AND HERBICIDE” (NISSAN CHEMICAL CORPORATION, priority 2019, published 2023).

Tests used:
Japanese bulrush [1] = test: Test Example 1: herbicidal activity, application before weed generation under submerged conditions (Table 16, symbol B); assay type: in vivo, Japanese bulrush (Schoenoplectus juncoides)
In short: (§1)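 Submerged Wagner pots (alluvial soil, 4 cm water) sown with weed seeds and planted with 2.5-leaf rice seedlings; emulsifiable concentrate diluted in water applied to water surface on sowing day. Held in greenhouse at 25-30 °C; injury scored 0-5 by herbicidal rate after three weeks.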

green foxtail [2] = test: Test Example 5: herbicidal effect by foliage application, plastic box (Table 20, symbol G); assay type: in vivo, green foxtail (Setaria viridis); conditions: foliage application, three weeks after application
In short: (§2)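 Plants sown in sterilized diluvial soil and grown 14 days in a greenhouse at 25° C to 30° C, then sprayed on the foliage with the compound's emulsion diluted in water to a predetermined herbicide amount. Injury to weeds and crops scored three weeks after application on a visual rating scale.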

redroot pigweed = test: Test Example 4: herbicidal effect by soil treatment (Table 19, symbol N); assay type: in vivo, redroot pigweed (Amaranthus retroflexus)
In short: (§3)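 Three weeks of greenhouse growth at 25° C. to 30° C. followed a uniform surface spray of water-diluted emulsion at a predetermined herbicide amount. Seeds had been sown beforehand under about 1.5 cm of sterilized diluvial soil. Grading followed criteria set out in an earlier test.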

southern crabgrass = test: Test Example 5: herbicidal effect by foliage application, plastic box (Table 20, symbol F); assay type: in vivo, southern crabgrass (Digitaria ciliaris); conditions: foliage application, three weeks after application
In short: as §2

Japanese bulrush [3] = test: Test Example 2: herbicidal activity, application during weed generation under submerged conditions (Table 17, symbol B); assay type: in vivo, Japanese bulrush (Schoenoplectus juncoides); conditions: application during weed generation, submerged conditions
In short: (§4)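 Wagner pot, alluvial soil, 4 cm flood; mixed sowing of all species; greenhouse 25° C.–30° C. Emulsifiable formulation, water-diluted to predetermined dose, applied to paddy water at 1–2 leaf stage. Effect rated at 3 wk using the earlier test's scoring criteria.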

blackgrass [4] = test: Test Example 5: herbicidal effect by foliage application, plastic box (Table 20, symbol J); assay type: in vivo, blackgrass (Alopecurus myosuroides); conditions: foliage application, three weeks after application
In short: as §2

persian speedwell [5] = test: Test Example 4: herbicidal effect by soil treatment (Table 19, symbol R); assay type: in vivo, Persian speedwell (Veronica persica)
In short: as §3

green foxtail [6] = test: Test Example 4: herbicidal effect by soil treatment (Table 19, symbol G); assay type: in vivo, green foxtail (Setaria viridis)
In short: as §3

barnyard grass [7] = test: Test Example 4: herbicidal effect by soil treatment (Table 19, symbol H); assay type: in vivo, barnyard grass (Echinochloa crus-galli)
In short: as §3

velvetleaf [8] = test: Test Example 5: herbicidal effect by foliage application, plastic box (Table 20, symbol M); assay type: in vivo, velvetleaf (Abutilon theophrasti); conditions: foliage application, three weeks after application
In short: as §2

barnyard grass [9] = test: Test Example 3: herbicidal effect by foliage application, Wagner pot (Table 18, symbol H); assay type: in vivo, barnyard grass (Echinochloa crus-galli)
In short: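 Plants were sown in alluvial soil held under 0.1–0.5 cm standing water and grown 14 days in a greenhouse at 25–30 °C. An emulsifiable formulation, water-diluted to the set dose, was then sprayed onto the foliage, and effects were scored three weeks later using previously defined criteria.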

velvetleaf [10] = test: Test Example 4: herbicidal effect by soil treatment (Table 19, symbol M); assay type: in vivo, velvetleaf (Abutilon theophrasti)
In short: as §3

oval-leafed pondweed [11] = test: Test Example 1: herbicidal activity, application before weed generation under submerged conditions (Table 16, symbol C); assay type: in vivo, oval-leafed pondweed (Monochoria vaginalis)
In short: as §1

oval-leafed pondweed [12] = test: Test Example 2: herbicidal activity, application during weed generation under submerged conditions (Table 17, symbol C); assay type: in vivo, oval-leafed pondweed (Monochoria vaginalis); conditions: application during weed generation, submerged conditions
In short: as §4

windgrass = test: Test Example 5: herbicidal effect by foliage application, plastic box (Table 20, symbol L); assay type: in vivo, windgrass (Apera spica-venti); conditions: foliage application, three weeks after application
In short: as §2

blackgrass [13] = test: Test Example 4: herbicidal effect by soil treatment (Table 19, symbol J); assay type: in vivo, blackgrass (Alopecurus myosuroides)
In short: as §3

persian speedwell [14] = test: Test Example 5: herbicidal effect by foliage application, plastic box (Table 20, symbol R); assay type: in vivo, Persian speedwell (Veronica persica); conditions: foliage application, three weeks after application
In short: as §2

[15] = amount of applied herbicide 80 g/ha
[16] = amount of applied herbicide 246 g/ha
[17] = amount of applied herbicide 320 g/ha

`CCOc1ccccc1-c1sc2cc(OC)ccc2c1-c1c(O)c(C)nn(C)c1=O` [3-070] was tested, and the “Herbicidal effect, B: Japanese bulrush” value (Japanese bulrush [1]; [15]) was 5 (Herbicidal rate of 90% or more (almost completely withered)), the “G: green foxtail, herbicidal effect grade” value (green foxtail [2]; 80 g/ha) was 4 (Herbicidal rate of 70% or more and less than 90%) and the “N: redroot pigweed, herbicidal effect grade” value (redroot pigweed; [15]) was 0 (Herbicidal rate of 5% or less (almost no effect)). The “F: southern crabgrass, herbicidal effect grade” value (southern crabgrass; 80 g/ha) was 5 (Herbicidal rate of 90% or more (almost completely withered)), the “herbicidal effect rating, B: Japanese bulrush” value (shortened to “herbicidal effect rating, B”) (Japanese bulrush [3]; AAH 80 g/ha) was 5 (Herbicidal rate of 90% or more (almost completely withered)) and the “J: blackgrass, herbicidal effect grade” value (blackgrass [4]; 80 g/ha) was 5 (Herbicidal rate of 90% or more (almost completely withered)). For the same molecule, the “R: persian speedwell, herbicidal effect grade” value (persian speedwell [5]; [15]) was 5 (Herbicidal rate of 90% or more (almost completely withered)), the “G: green foxtail, herbicidal effect grade” value (green foxtail [6]; [15]) was 3 (Herbicidal rate of 40% or more and less than 70%) and the “H: barnyard grass, herbicidal effect grade” value (barnyard grass [7]; [15]) was 0 (Herbicidal rate of 5% or less (almost no effect)). For the same molecule, the “M: velvetleaf, herbicidal effect grade” value (velvetleaf [8]; 80 g/ha) was 5 (Herbicidal rate of 90% or more (almost completely withered)), the “herbicidal effect on barnyard grass (H)” value (barnyard grass [9]; 80 g/ha) was 5 (Herbicidal rate of 90% or more (almost completely withered)) and the “M: velvetleaf, herbicidal effect grade” value (velvetleaf [10]; [15]) was 0 (Herbicidal rate of 5% or less (almost no effect)). For the same molecule, the “Herbicidal effect, C: oval-leafed pondweed” value (oval-leafed pondweed [11]; [15]) was 4 (Herbicidal rate of 70% or more and less than 90%), the “herbicidal effect rating, C: oval-leafed pondweed” value (“herbicidal effect rating, C” for short) (oval-leafed pondweed [12]; AAH 80 g/ha) was 4 (Herbicidal rate of 70% or more and less than 90%) and the “L: windgrass, herbicidal effect grade” value (windgrass; 80 g/ha) was 5 (Herbicidal rate of 90% or more (almost completely withered)). For the same molecule, the “J: blackgrass, herbicidal effect grade” value (blackgrass [13]; [15]) was 0 (Herbicidal rate of 5% or less (almost no effect)) and the “R: persian speedwell, herbicidal effect grade” value (persian speedwell [14]; 80 g/ha) was 5 (Herbicidal rate of 90% or more (almost completely withered)).
With `CCCC(=O)Oc1c(C)nn(C)c(=O)c1-c1c(-c2ccc(F)cc2OCC)oc2ccc(C)cc12` [9-010] the “Herbicidal effect, B: Japanese bulrush” value (Japanese bulrush [1]; [16]) was 3 (Herbicidal rate of 40% or more and less than 70%), the “herbicidal effect on green foxtail (G)” value (green foxtail [2]; 246 g/ha) was 2 (Herbicidal rate of 20% or more and less than 40%) and the “N: redroot pigweed, herbicidal effect grade” value (redroot pigweed; [16]) was 0 (Herbicidal rate of 5% or less (almost no effect)). For the same molecule, the “herbicidal effect on southern crabgrass (F)” value (southern crabgrass; 246 g/ha) was 3 (Herbicidal rate of 40% or more and less than 70%), the “herbicidal effect rating, B” value (Japanese bulrush [3]; AAH 246 g/ha) was 0 (Herbicidal rate of 5% or less (almost no effect)) and the “herbicidal effect on blackgrass (J)” value (blackgrass [4]; 246 g/ha) was 0 (Herbicidal rate of 5% or less (almost no effect)). For the same molecule, the “R: persian speedwell, herbicidal effect grade” value (persian speedwell [5]; [16]) was 0 (Herbicidal rate of 5% or less (almost no effect)), the “G: green foxtail, herbicidal effect grade” value (green foxtail [6]; [16]) was 3 (Herbicidal rate of 40% or more and less than 70%) and the “H: barnyard grass, herbicidal effect grade” value (barnyard grass [7]; [16]) was 0 (Herbicidal rate of 5% or less (almost no effect)). For the same molecule, the “herbicidal effect on velvetleaf (M)” value (velvetleaf [8]; 246 g/ha) was 4 (Herbicidal rate of 70% or more and less than 90%), the “Herbicidal effect on H (barnyard grass), foliage application” value (barnyard grass [9]; [16]) was 4 (Herbicidal rate of 70% or more and less than 90%) and the “M: velvetleaf, herbicidal effect grade” value (velvetleaf [10]; [16]) was 0 (Herbicidal rate of 5% or less (almost no effect)). The “Herbicidal effect, C: oval-leafed pondweed” value (oval-leafed pondweed [11]; [16]) was 3 (Herbicidal rate of 40% or more and less than 70%), the “herbicidal effect rating, C” value (oval-leafed pondweed [12]; AAH 246 g/ha) was 2 (Herbicidal rate of 20% or more and less than 40%) and the “herbicidal effect on windgrass (L)” value (windgrass; 246 g/ha) was 0 (Herbicidal rate of 5% or less (almost no effect)). The “J: blackgrass, herbicidal effect grade” value (blackgrass [13]; [16]) was 0 (Herbicidal rate of 5% or less (almost no effect)) and the “herbicidal effect on persian speedwell (R)” value (persian speedwell [14]; 246 g/ha) was 3 (Herbicidal rate of 40% or more and less than 70%).
With `Cc1nn(C)c(=O)c(-c2c(-c3ccc(C#N)cc3)sc3ccccc23)c1O` [Compound No. 1-045, 5-hydroxy-2,6-dimethyl-4-(2-(4-cyanophenyl)benzo[b]thiophen-3-yl)pyridazin-3(2H)-one] the “Herbicidal effect on B: Japanese bulrush (grade 0-5)” value (Japanese bulrush [1]; 320 g/ha applied herbicide) was 4 (Herbicidal rate of 70% or more and less than 90%), the “herbicidal effect grade, G: green foxtail” value (green foxtail [2]; 320 g/ha) was 3 (Herbicidal rate of 40% or more and less than 70%) and the “herbicidal effect rating, N: redroot pigweed” value (redroot pigweed; [17]) was 3 (Herbicidal rate of 40% or more and less than 70%). For the same molecule, the “herbicidal effect grade, F: southern crabgrass” value (southern crabgrass; 320 g/ha) was 3 (Herbicidal rate of 40% or more and less than 70%), the “herbicidal effect rating, B” value (Japanese bulrush [3]; AAH 320 g/ha) was 3 (Herbicidal rate of 40% or more and less than 70%) and the “herbicidal effect grade, J: blackgrass” value (blackgrass [4]; 320 g/ha) was 0 (Herbicidal rate of 5% or less (almost no effect)). For the same molecule, the “herbicidal effect rating, R: persian speedwell” value (persian speedwell [5]; [17]) was 5 (Herbicidal rate of 90% or more (almost completely withered)), the “herbicidal effect rating, G: green foxtail” value (green foxtail [6]; [17]) was 4 (Herbicidal rate of 70% or more and less than 90%) and the “herbicidal effect rating, H: barnyard grass” value (barnyard grass [7]; [17]) was 5 (Herbicidal rate of 90% or more (almost completely withered)). For the same molecule, the “herbicidal effect grade, M: velvetleaf” value (velvetleaf [8]; 320 g/ha) was 5 (Herbicidal rate of 90% or more (almost completely withered)), the “herbicidal effect on H (barnyard grass), rating 0-5” value (barnyard grass [9]; 320 g/ha) was 5 (Herbicidal rate of 90% or more (almost completely withered)) and the “herbicidal effect rating, M: velvetleaf” value (velvetleaf [10]; [17]) was 5 (Herbicidal rate of 90% or more (almost completely withered)). The “Herbicidal effect on C: oval-leafed pondweed (grade 0-5)” value (oval-leafed pondweed [11]; 320 g/ha applied herbicide) was 4 (Herbicidal rate of 70% or more and less than 90%), the “herbicidal effect rating, C” value (oval-leafed pondweed [12]; AAH 320 g/ha) was 4 (Herbicidal rate of 70% or more and less than 90%) and the “herbicidal effect grade, L: windgrass” value (windgrass; 320 g/ha) was 0 (Herbicidal rate of 5% or less (almost no effect)). For the same molecule, the “herbicidal effect rating, J: blackgrass” value (blackgrass [13]; [17]) was 0 (Herbicidal rate of 5% or less (almost no effect)) and the “herbicidal effect grade, R: persian speedwell” value (persian speedwell [14]; 320 g/ha) was 5 (Herbicidal rate of 90% or more (almost completely withered)).
